Tests used:
[1] = test system: E. coli expressing the Class A Extended Spectrum Beta-Lactamase (ESBL) CTX-M-15; assay: Broth microdilution MIC assay with ceftazidime, E. coli CTX-M-15; format: cell-based; conditions: for MIC (μg/mL) of Exemplary Compounds in presence of fixed β-lactams: E. coli ESBL4 CTX-M-15: Fixed CAZ (ceftazidime) 4 μg/mL
Source text: (§1) To determine the ability of test compounds to potentiate the inhibition of the growth of bacterial strains that produce beta-lactamase enzymes in the presence of a β-lactam antibiotic, classic cell based broth microdilution MIC assays were employed. Six bacteria strains producing beta-lactamase enzymes were used: E. coli expressing the Class A Extended Spectrum Beta-Lactamase (ESBL) CTX-M-15, E. cloacae expressing the Class C P99, K. pneumoniae expressing the Class A carbapenemase KPC-2, P. aeruginosa expressing the Class B carbapenemase VIM-2, K. pneumoniae expressing the class A carbapenemase KPC-2 and the class B carbapenemase VIM-4, and K. pneumoniae producing the Class D carbapenemase OXA-48. The assay was conducted in Cation Adjusted Mueller Hinton Broth (CAMHB, BD #212322, BD Diagnostic Systems, Sparks, Md.). Bacteria strains were grown for 3-5 hours in CAMBH broth. Test compounds (Examples 1-94) were added to a microtiter plate in 2-fold serial dilutions in CAMHB in a final concentration range of 16 μg/mL to 0.125 μg/ml. An overlay of CAMHB containing a Beta-lactam was added to the compounds at a final static concentration of 4 μg/ml. […] In addition to the titration of test compounds the MICs of a panel of control beta-lactams is also tested to ensure the strains are behaving consistently from test to test. Once the test compound and antibiotics are added the plates can be inoculated according to CLSI broth microdilution method. After inoculation the plates are incubated for 16-20 hours at 37° C. then the Minimal Inhibitory Concentration (MIC) of the test compound is determined visually.
(§2) Using the methodology described above, examples of the current invention were evaluated for their ability to inhibit the growth of β-lactamase-producing bacteria in the presence of a β-lactam antibiotic.

[2] = test system: E. cloacae expressing the Class C P99; assay: Broth microdilution MIC assay with ceftazidime, E. cloacae P99; format: cell-based; conditions: Enterobacter cloacae, read-out: MIC alone
Source text: as §1, §2

[3] = test system: K. pneumoniae expressing the class A carbapenemase KPC-2 and the class B carbapenemase VIM-4; assay: Broth microdilution MIC assay with meropenem, K. pneumoniae KPC-2 and VIM-4; format: cell-based; conditions: Fixed Mero (meropenem) 4 μg/mL; K. p. A-1797 KPC-2 VIM-4
Source text: as §1, §2

SHV-5 = target: T1, SHV-5 (Klebsiella pneumoniae, UniProt P0A3M1); assay: β-lactamase enzyme inhibition assay, SHV-5 (cefotaxime substrate); format: biochemical
T1 construct: made in house; host or cells: E. coli BL21(DE3)
Protocol: (§3) For SHV-5, Kpc-2, p99AmpC and OXA-1 β-lactamases, E. coli BL21(DE3) bacterial cells carrying expression plasmids (expressed as native untagged proteins) for the individual β-lactamases were grown in 1 L of Superbroth (Teknova Inc. Hollister, Calif.) supplemented with 100 μg/ml kanamycin selection and 1×5052 (0.5% glycerol, 0.05% glucose and 0.2% α-lactose) at 35° C. for 18-20 hours. Cells were harvested by centrifugation (4,000×g, 4° C., 20 min), resuspended in 50 ml of 10 mM HEPES pH 7.5 ( 1/20 of the initial volume). The cells were lysed by sonication (5 pulses of 45 seconds) at 45 W on ice. The lysates were clarified by centrifugation at 10,000×g for 40 minutes at 4° C. Samples were diluted 5-fold in 50 mM sodium acetate pH 5.0, stored overnight at 4° C., after which they were centrifuged at 10,000×g for 30 minutes to clarify, and filtered through 0.45 μm filters. The samples were loaded onto a 5 ml Capto S sepharose cation exchange column (GE Healthcare) pre-equilibrated with 50 mM sodium acetate pH 5.0. The column was washed with 5 column volumes of 50 mM sodium acetate pH 5.0 to wash out unbound protein and a linear gradient of NaCl (0 to 500 mM) was used to elute the protein (over 16 CV) from the column. Fractions were assayed for β-lactamase activity using Centa (Calbiochem, Gibbstown, N.J.) or Nitrocefin (EMD Millipore chemicals, Darmstadt, Germany) as a reporter β-lactamase substrate for activity in the isolated fractions. Active fractions were pooled, concentrated and further purified by gel filtration chromatography on a Superdex 75 prep grade gel filtration column (GE Healthcare, Piscataway, N.J.) pre-equilibrated in 50 mM Hepes pH 7.5, 150 mM NaCl. Active fractions were pooled concentrated, quantitated by BCA protein determination (Thermo Scientific, Rockford, Ill.), dialyzed into PBS and frozen at −80° C. in 20% glycerol until use.
(§4) An equal volume of diluted enzyme stock was added, and the plates were incubated at 37° C. for 15 min. Nitrocefin was used as substrate for p99 AmpC, VIM-2 and OXA-1 and dispensed into each well at a final concentration of 100 μM. Absorbance at 486 nm was immediately monitored for 10 min using a Biotek Powerwave XS2 microplate spectrophotometer using the GEN5 software package (Biotek Instruments, Winooski Vt.). In an analogous fashion, imipenem was used as substrate for Kpc-2 and Cefotaxime was used for SHV-5, while changes in absorbance upon hydrolysis of the β-lactam ring were monitored at 300 nm and 260 nm respectively in UV-transparent 96-well microtiter assay plates. Maximum rates of hydrolysis were compared to those in control wells (without inhibitors), and percentages of enzyme inhibition were calculated for each concentration of inhibitor. The concentration of inhibitor needed to reduce the initial rate of hydrolysis of substrate by 50% (IC50) was calculated as the residual activity of β-lactamase at 486 nm using GraFit version 7 kinetics software package (Erithacus Software, Surrey, UK).
(§5) Using the methodology described above, examples of the current invention were evaluated for their ability to inhibit β-lactamase enzymes from all four Ambler classifications (A through D). […] NT=Not tested.

[4] = test system: K. pneumoniae producing the Class D carbapenemase OXA-48; assay: Broth microdilution MIC assay with meropenem, K. pneumoniae OXA-48; format: cell-based; conditions: Fixed Mero (meropenem) 4 μg/mL; K. p. 11978 OXA-48
Source text: as §1, §2

[5] = test system: P. aeruginosa expressing the Class B carbapenemase VIM-2; assay: Broth microdilution MIC assay with meropenem, P. aeruginosa VIM-2; format: cell-based; conditions: Fixed Mero (meropenem) 4 μg/mL; P. aerug. 2775 VIM-2
Source text: as §1, §2

AmpC = target: T2, AmpC (Enterobacter cloacae, UniProt P05364); assay: β-lactamase enzyme inhibition assay, p99 AmpC (nitrocefin substrate); format: biochemical
T2 construct: made in house; host or cells: E. coli BL21(DE3)
Protocol: as §3, §4, §5

OXA-48 = OXA-48 (UniProt Q6XEC0); assay: β-lactamase enzyme inhibition assay, Class D oxacillinase; format: biochemical; conditions: read-out: OXA-48
[6] = test system: K. pneumoniae expressing the Class A carbapenemase KPC-2; assay: Broth microdilution MIC assay with meropenem, K. pneumoniae KPC-2; format: cell-based; conditions: Fixed Mero (meropenem) 4 μg/mL; K. p. 156319 KPC-3
Source text: as §1, §2

VIM-2 = target: T3, VIM-2 (Escherichia coli, UniProt Q5U7L7); assay: β-lactamase enzyme inhibition assay, VIM-2 (nitrocefin substrate); format: biochemical; conditions: Class B; nitrocefin substrate, 486 nm; read-out: VIM-2
T3 construct: made in house; host or cells: E. coli BL21(DE3)
Protocol: For Vim-2 metallo β-lactamase, the procedure was identical with the following exceptions, first the protein was not pH adjusted to pH 5 with 50 mM sodium acetate, second, the chromatography step was changed to a 5 ml Q sepharose anion exchange column pre-equilibrated with 50 mM Hepes pH 7.5, and elution of the protein was achieved by a linear gradient of NaCl (0-600 mM). Finally, the VIM-2 purification required a second run (3rd step) on the Q sepharose anion exchange column to achieve acceptable purity (>90%).
as §4, §5

KPC-2 = target: T4, KPC-2 (Klebsiella pneumoniae, UniProt Q9F663); assay: β-lactamase enzyme inhibition assay, KPC-2 (imipenem substrate); format: biochemical; conditions: Class A; imipenem substrate, 300 nm; read-out: KPC-2
T4 construct: made in house; host or cells: E. coli BL21(DE3)
Protocol: as §3, §4, §5

T1 sequence (P0A3M1 22-286): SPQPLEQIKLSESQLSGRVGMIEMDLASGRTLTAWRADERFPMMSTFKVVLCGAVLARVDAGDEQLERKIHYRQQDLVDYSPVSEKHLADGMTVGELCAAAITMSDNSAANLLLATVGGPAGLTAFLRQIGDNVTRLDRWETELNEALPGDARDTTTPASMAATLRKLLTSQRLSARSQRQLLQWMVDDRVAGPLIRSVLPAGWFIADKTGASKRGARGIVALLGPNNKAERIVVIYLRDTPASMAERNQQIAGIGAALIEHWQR
T2 sequence (P05364 21-381): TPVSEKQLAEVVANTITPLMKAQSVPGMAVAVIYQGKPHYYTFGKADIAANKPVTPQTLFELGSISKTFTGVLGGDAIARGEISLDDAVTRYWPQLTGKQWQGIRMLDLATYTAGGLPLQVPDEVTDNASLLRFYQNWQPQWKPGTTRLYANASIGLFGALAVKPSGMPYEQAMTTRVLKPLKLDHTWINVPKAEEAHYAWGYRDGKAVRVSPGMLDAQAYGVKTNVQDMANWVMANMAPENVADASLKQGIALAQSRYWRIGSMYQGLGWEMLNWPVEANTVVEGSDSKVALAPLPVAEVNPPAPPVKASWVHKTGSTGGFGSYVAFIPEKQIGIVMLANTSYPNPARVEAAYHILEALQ
T4 sequence (Q9F663 25-293, looked up): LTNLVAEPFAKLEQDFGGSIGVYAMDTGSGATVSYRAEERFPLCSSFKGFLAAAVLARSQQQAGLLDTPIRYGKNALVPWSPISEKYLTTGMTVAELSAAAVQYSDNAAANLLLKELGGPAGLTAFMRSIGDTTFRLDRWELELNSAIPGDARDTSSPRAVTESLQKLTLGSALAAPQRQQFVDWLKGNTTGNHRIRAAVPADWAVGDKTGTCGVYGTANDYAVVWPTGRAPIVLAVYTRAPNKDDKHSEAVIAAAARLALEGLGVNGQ

Row | Structure (SMILES) | MIC ([1]; Escherichia coli, read-out: MIC alone) [µg/mL] | MIC [2] [µg/mL] | MIC (μg/mL) of Exemplary Compounds in presence of fixed β-lactams: E. coli ESBL4 CTX-M-15 [1] | MIC (μg/mL) of Exemplary Compounds in presence of fixed β-lactams: K. p. A-1797 KPC-2 VIM-4 [3] | IC50 (SHV-5) [nM] | MIC (μg/mL) of Exemplary Compounds in presence of fixed β-lactams: K. p. 11978 OXA-48 [4] | MIC (μg/mL) of Exemplary Compounds in presence of fixed β-lactams: P. aerug. 2775 VIM-2 [5] | IC50 (AmpC) [nM] | IC50 (OXA-48) [nM] | MIC (μg/mL) of Exemplary Compounds in presence of fixed β-lactams: K. p. 156319 KPC-3 [6] | IC50 (VIM-2) [nM] | IC50 (KPC-2) [nM]
1 | CC(C)(O/N=C(\C(=O)N[C@@H]1C(=O)N2C(C(=O)[O-])=C(C[n+]3ccccc3)CS[C@H]12)c1csc(N)n1)C(=O)O [Ceftazidime, ceftazidime, reference compound] | > 128 | 128 | – | – | – | – | – | – | – | – | – | –
2 | NCCCc1c(CN)nnn1CC(=O)N[C@H]1Cc2cccc(C(=O)O)c2OB1O [Example 110, (R)-3-(2-(4-(aminomethyl)-5-(3-aminopropyl)-1H-1,2,3-triazol-1-yl)acetamido)-2-hydroxy-3,4-dihydro-2H-benzo[e][1,2]oxaborinine-8-carboxylic acid] | – | – | C (C represents an MIC of <1 μg/mL) | C (C represents an MIC of <1 μg/mL) | 1000 to 10000 | B (B represents an MIC between 1 and 16 μg/mL inclusive) | C (C represents an MIC of <1 μg/mL) | 100 to 1000 | 100 to 1000 | C (C represents an MIC of <1 μg/mL) | < 100 | 100 to 1000
3 | O=C(Cn1cc(CF)nn1)N[C@H]1Cc2cccc(C(=O)O)c2OB1O [Example 111, (R)-3-(2-(4-(fluoromethyl)-1H-1,2,3-triazol-1-yl)acetamido)-2-hydroxy-3,4-dihydro-2H-benzo[e][1,2]oxaborinine-8-carboxylic acid] | – | – | C (C represents an MIC of <1 μg/mL) | B (B represents an MIC between 1 and 16 μg/mL inclusive) | < 100 | B (B represents an MIC between 1 and 16 μg/mL inclusive) | B (B represents an MIC between 1 and 16 μg/mL inclusive) | < 100 | 100 to 1000 | B (B represents an MIC between 1 and 16 μg/mL inclusive) | 1000 to 10000 | < 100
